Experimental data: ChEMBL document CHEMBL5727943, “Composition and methods for inhibiting mammalian sterile 20-like kinase 1” (2020)

How the values were obtained:
[1] = target: T1, Serine/threonine-protein kinase 3 (Homo sapiens, UniProt Q13188); test: (§1) MST1/MST2 Biochemical LanthaScreen Eu Kinase Binding Assay: MST1 and MST2 biochemical LanthaScreen Eu Kinase Binding Assay was based on the binding and displacement of kinase tracer to the kinase of interest. Compounds in 1000×DMSO stock solution was dispensed using automated dispensing system (Labcyte) to 384 well Corning Microplate at 15 nL, 5 uL of Kinase buffer A was added to each well. Plates were shaken and incubated for 1 min to ensure well dissolution of compounds.
T1 sequence (Q13188 whole entry): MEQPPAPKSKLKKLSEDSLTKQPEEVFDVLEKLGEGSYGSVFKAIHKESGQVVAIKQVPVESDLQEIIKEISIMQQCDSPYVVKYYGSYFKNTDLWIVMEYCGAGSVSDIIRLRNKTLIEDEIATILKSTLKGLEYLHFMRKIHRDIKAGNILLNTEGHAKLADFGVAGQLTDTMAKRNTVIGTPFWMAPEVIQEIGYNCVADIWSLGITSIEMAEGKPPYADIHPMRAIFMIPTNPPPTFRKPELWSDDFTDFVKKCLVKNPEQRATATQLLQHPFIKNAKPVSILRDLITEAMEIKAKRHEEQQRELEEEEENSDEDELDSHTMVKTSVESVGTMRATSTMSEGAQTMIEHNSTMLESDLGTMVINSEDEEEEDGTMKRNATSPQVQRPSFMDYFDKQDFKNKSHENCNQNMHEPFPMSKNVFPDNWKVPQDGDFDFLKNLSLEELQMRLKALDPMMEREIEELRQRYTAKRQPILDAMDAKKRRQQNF

[2] = target: T2, Serine/threonine-protein kinase 4 (Homo sapiens, UniProt Q13043); test: as §1
T2 sequence (Q13043 whole entry): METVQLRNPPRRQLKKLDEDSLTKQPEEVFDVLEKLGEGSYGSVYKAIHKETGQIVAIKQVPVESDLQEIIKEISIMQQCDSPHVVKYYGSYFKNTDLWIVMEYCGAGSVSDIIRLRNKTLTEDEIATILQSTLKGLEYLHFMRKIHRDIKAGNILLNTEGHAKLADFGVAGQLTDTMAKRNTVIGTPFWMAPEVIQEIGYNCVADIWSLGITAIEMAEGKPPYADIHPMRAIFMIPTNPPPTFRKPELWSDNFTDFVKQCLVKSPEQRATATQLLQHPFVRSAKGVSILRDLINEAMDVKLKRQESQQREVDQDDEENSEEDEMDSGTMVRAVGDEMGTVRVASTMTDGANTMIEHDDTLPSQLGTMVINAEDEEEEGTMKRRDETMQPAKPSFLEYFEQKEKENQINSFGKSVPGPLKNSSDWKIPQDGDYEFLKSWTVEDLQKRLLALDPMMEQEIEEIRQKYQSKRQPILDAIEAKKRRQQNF

In the case of CCOc1cc2ncc(C#N)c(Nc3ccc(OCc4ncccc4C)cc3Cl)c2cc1NC(=O)/C=C/CN(C)C, the IC50 [1] is reported as < 0.1 µM and the IC50 [2] is reported as < 0.1 µM.
